Reference: patent publication US20260317309A1, “N-HETEROCYLIC GPCR RECEPTOR AGONISTS, PHARMACEUTICAL COMPOSITIONS COMPRISING THE SAME, AND METHODS FOR THEIR USE” (Carmot Therapeutics, Inc., priority 2022, published 2026)

Molecular target: T1, human GLP-1 receptor (Homo sapiens, UniProt P43220)
T1 construct: expressed in transfected cells
Test: GLP-1R cAMP assay (cAMP accumulation in CHO cells stably overexpressing the human GLP-1 receptor, HitHunter kit)
Type: cell-based
Settings: CHO cells stably overexpressing human GLP-1R, 30 min, 20-point dose response in triplicate
Summary of the method: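 CHO cells stably expressing the human receptor (10,000/well) in HBSS with 10 mM HEPES and 625 μM IBMX, given compound as a 20-point dose response in triplicate for 30 min. cAMP was read by luminescent enzyme-complementation detection after overnight incubation, and EC50 was fitted from dose-response curves.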

T1 sequence (P43220 24-463): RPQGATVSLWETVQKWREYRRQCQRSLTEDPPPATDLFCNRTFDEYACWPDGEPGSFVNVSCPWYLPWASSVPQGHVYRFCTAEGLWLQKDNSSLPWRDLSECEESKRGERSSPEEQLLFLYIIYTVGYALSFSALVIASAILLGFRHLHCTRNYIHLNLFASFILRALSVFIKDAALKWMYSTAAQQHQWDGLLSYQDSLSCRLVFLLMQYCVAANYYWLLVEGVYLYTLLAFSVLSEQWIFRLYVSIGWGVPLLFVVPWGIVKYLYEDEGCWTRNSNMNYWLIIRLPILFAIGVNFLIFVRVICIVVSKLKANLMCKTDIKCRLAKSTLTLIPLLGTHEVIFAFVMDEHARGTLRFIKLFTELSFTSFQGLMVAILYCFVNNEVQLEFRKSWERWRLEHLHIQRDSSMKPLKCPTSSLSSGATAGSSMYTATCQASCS

Row | SMILES | EC50
1 | C[C@H]1C[C@@H](Oc2ccnc(COc3ccc(F)cc3F)n2)CCN1Cc1nc2ccc(CC(=O)O)cc2n1C[C@@H]1CCO1 [Compound 637, 2-(2-(((2S,4S)-4-((2-((2,4-difluorophenoxy)methyl)pyrimidin-4-yl)oxy)-2-methylpiperidin-1-yl)methyl)-1-(((S)-oxetan-2-yl)methyl)-1H-benzo[d]imidazol-6-yl) acetic acid] | 1 to 10 nM
2 | C[C@H]1C[C@@H](Oc2ccnc(COc3ccc(F)cc3F)n2)CCN1Cc1nc2ccc(C(=O)Nc3cccnc3)cc2n1C[C@@H]1CCO1 [Compound 638, 2-(((2S,4S)-4-((2-((2,4-Difluorophenoxy)methyl)pyrimidin-4-yl)oxy)-2-methylpiperidin-1-yl)methyl)-1-(((S)-oxetan-2-yl)methyl)-N-(pyridin-3-yl)-1H-benzo[d]imidazole-6-carboxamide] | 10 to 100 nM
3 | C[C@H]1C[C@@H](Oc2ccnc(COc3ccc(F)cc3F)n2)CCN1Cc1nc2ccc(CO)cc2n1C[C@@H]1CCO1 [Compound 639, (2-(((2S,4S)-4-((2-((2,4-difluorophenoxy)methyl)pyrimidin-4-yl)oxy)-2-methylpiperidin-1-yl)methyl)-1-(((S)-oxetan-2-yl)methyl)-1H-benzo[d]imidazol-6-yl)methanol] | 10 to 100 nM
4 | N#Cc1ccc(OCc2nccc(O[C@H]3CC[C@H](Cc4nc5ccc(C(=O)O)cc5n4C[C@@H]4CCO4)CC3)n2)c(F)c1 [Compound 640, 1-{[(2S)-oxetan-2-yl]methyl}-2-{[(1r,4r)-4-({2-[(4-cyano-2-fluorophenoxy)methyl]pyrimidin-4-yl}oxy)cyclohexyl]methyl}-1H-1,3-benzodiazole-6-carboxylic acid] | < 0.1 nM
5 | N#Cc1ccc(OCc2nccc(O[C@H]3CC[C@@H](Cc4nc5ccc(C(=O)O)cc5n4C[C@@H]4CCO4)CC3)n2)c(F)c1 [Compound 641, 1-{[(2S)-oxetan-2-yl]methyl}-2-{[(1s,4s)-4-({2-[(4-cyano-2-fluorophenoxy)methyl]pyrimidin-4-yl}oxy)cyclohcxyl]methyl}-1H-1,3-benzodiazole-6-carboxylic acid] | 100 to 500 nM

The remaining lines, values ahead:

Row | EC50 | SMILES
6 | 0.1 to 1 nM | C[C@H]1C[C@@H](Oc2ccnc(COc3ncc(C#N)cc3F)n2)CCN1Cc1nc2ccc(C(=O)O)cc2n1CCOCC(F)(F)F [Compound 635, 2-(((2S,4S)-4-((2-(((5-Cyano-3-fluoropyridin-2-yl)oxy)methyl)pyrimidin-4-yl)oxy)-2-methylpiperidin-1-yl)methyl)-1-(2-(2,2,2-trifluoroethoxy)ethyl)-1H-benzo[d]imidazole-6-carboxylic acid]
7 | 0.1 to 1 nM | C[C@H]1C[C@@H](Oc2ccnc(COc3ncc(C#N)cc3F)n2)CCN1Cc1nc2c(F)cc(C(=O)O)cc2n1CCOCC(F)(F)F [Compound 636, 2-(((2S,4S)-4-((2-(((5-cyano-3-fluoropyridin-2-yl)oxy)methyl)pyrimidin-4-yl)oxy)-2-methylpiperidin-1-yl)methyl)-4-fluoro-1-(2-(2,2,2-trifluoroethoxy)ethyl)-1H-benzo[d]imidazole-6-carboxylic acid]
